Test results from patent US20240277683A1, “COMPOUNDS” (CTXT PTY LTD, priority 2018, published 2024).
Like-named read-outs stand apart in the source and are kept apart here.

Experiments:
Type in all cases: cell-based
Details in all cases: Homo sapiens
[1] = tested on: acetylation of the histone H3K23 marker in U2OS cells; assay: Histone H3 Lysine 23 Acetylation Biomarker Assay
Method: Compounds may be tested for their ability to inhibit acetylation of the histone H3K23 marker in the following assay:
The cell line U2OS was seeded at a density of 9,000 cells per well in 96 well optical quality tissue culture plates in RPMI medium and 10% foetal bovine serum, and allowed to adhere for 24 hours under standard culture conditions (37 degree Celsius, 5% CO2). At the end of this period the medium was aspirated. […] After incubation for 24 hours, the cells were fixed with 3.7% formaldehyde in PBS for 20 minutes at room temperature, washed (5×5 minutes) with phosphate buffer saline containing 0.1% Tween 20 and blocked with Odyssey blocking buffer (LI-COR, Lincoln, NE) containing 0.1% TritonX100. Anti-H3K23ac specific antibody (Abcam ab177275) in Odyssey blocking buffer containing 0.1% Tween 20 was added and incubated for 16 hours at 4 degree Celsius. […] Plates were washed as previously and read on a PerkinElmer Phenix high content imaging platform.

[2] = tested on: acetylation of the histone H3 Lysine 14 marker in U2OS cells; assay: Histone H3 Lysine 14 Acetylation Biomarker Assay
Method: Compounds may be tested for their ability to inhibit acetylation of the histone H3 Lysine 14 marker in the following assay:
(§1) The cell line U2OS was seeded at a density of 3,000 cells per well in 384-well optical quality tissue culture plates in RPMI medium supplemented with 10% foetal bovine serum and 10 mM Hepes. The cells were allowed to adhere for 24 hours under standard culture conditions (37 degree Celsius, 5% CO2). At the end of this period the cells were washed with serum free medium. […] Plates were washed and read on a PerkinElmer Opera HCS high content imaging platform.

[3] = tested on: histone H2A.Z Lysine 7 acetylation marker in U2OS cells; assay: H2A.Z Lysine 7 Acetylation Biomarker Assay
Method: Compounds may be tested for their ability to inhibit the histone H2A.Z Lysine 7 acetylation marker in the following assay:
as §1

[4] = H3K23ac, U2OS cells, 24 hours, read-out: IC50
[5] = H3K14ac, U2OS cells, serum free medium, 24 hours, read-out: IC50
[6] = H2A.ZK7ac, U2OS cells, serum free medium, 24 hours, read-out: IC50

| IC50 [1, 4] [nM] | IC50 [2, 5] [nM] | IC50 [3, 6] [nM] | SMILES | IC50 ([1]; U2OS, 24 h) [nM] | IC50 ([2]; U2OS, 24 h) [nM] | IC50 ([3]; U2OS, 24 h) [nM] |
| --- | --- | --- | --- | --- | --- | --- |
| – | – | – | COc1ccccc1-c1cc(NS(=O)(=O)Cc2ccccc2)no1 [Example 2, N-(5-(2-Methoxyphenyl)isoxazol-3-yl)-1-phenylmethanesulfonamide] | > 10000 | – | – |
| 474 | – | – | COc1cccc(OC)c1S(=O)(=O)Nc1nnc(-c2cc(Cl)ccc2OC(C)C)s1 [Example 111, N-(5-(5-Chloro-2-isopropoxyphenyl)-1,3,4-thiadiazol-2-yl)-2,6-dimethoxybenzenesulfonamide] | – | – | – |
| – | – | – | CCOc1ccccc1-c1cc(NS(=O)(=O)c2c(OC)cccc2OC)no1 [Example 5, N-(5-(2-Ethoxyphenyl)isoxazol-3-yl)-2,6-dimethoxybenzenesulfonamide] | 895 | 2330 | 5640 |
| – | – | – | CCc1ccc(OC)c(S(=O)(=O)Nc2cc(-c3cccc(OC)c3)on2)c1 [Example 13, 5-Ethyl-2-methoxy-N-(5-(3-methoxyphenyl)isoxazol-3-yl)benzenesulfonamide] | – | 22400 | – |
| – | – | – | COc1ccccc1-c1cc(NS(=O)(=O)c2c(OC)cccc2OC)no1 [Example 56, 2,6-Dimethoxy-N-(5-(2-methoxyphenyl)isoxazol-3-yl)benzenesulfonamide] | 2070 | 2640 | 24100 |
| 117 | 193 | 1770 | CCOc1ccc(OC)cc1-c1cc(NS(=O)(=O)c2c(OC)cccc2OC)no1 [Example 16, N-(5-(2-Ethoxy-5-methoxyphenyl)isoxazol-3-yl)-2,6-dimethoxybenzenesulfonamide] | – | – | – |
| 634 | – | – | COc1ccc(-c2ccnn2C)cc1-c1cc(NS(=O)(=O)c2c(OC)cccc2OC)no1 [Example 119, 2,6-Dimethoxy-N-(5-(2-methoxy-5-(1-methyl-1H-pyrazol-5-yl)phenyl)isoxazol-3-yl)benzenesulfonamide] | – | – | – |
| – | – | – | CCc1ccc(OC)c(S(=O)(=O)Nc2cc(-c3ccc(OC)cc3OC)on2)c1 [Example 12, N-(5-(2,4-Dimethoxyphenyl)isoxazol-3-yl)-5-ethyl-2-methoxybenzenesulfonamide] | – | > 40000 | > 40000 |
| 178 | 216 | 9990 | CCc1ccc(OC)cc1-c1cc(NS(=O)(=O)c2c(OC)cccc2OC)no1 [Example 23, N-(5-(2-Ethyl-5-methoxyphenyl)isoxazol-3-yl)-2,6-dimethoxybenzenesulfonamide] | – | – | – |
| – | – | – | CCc1ccc(OC)c(S(=O)(=O)Nc2cc(-c3ccccc3OC)on2)c1 [Example 58, 5-Ethyl-2-methoxy-N-(5-(2-methoxyphenyl)isoxazol-3-yl)benzenesulfonamide] | – | 22400 | > 40000 |
| 141 | 450 | 12100 | COc1ccc(Cl)cc1-c1cc(NS(=O)(=O)c2c(OC)cccc2OC)no1 [Example 15, N-(5-(5-Chloro-2-methoxyphenyl)isoxazol-3-yl)-2,6-dimethoxybenzenesulfonamide] | – | – | – |
| – | > 40000 | > 40000 | COc1cc(Cl)ccc1-c1cc(NS(=O)(=O)c2c(OC)cccc2OC)no1 [Example 21, N-(5-(4-Chloro-2-methoxyphenyl)isoxazol-3-yl)-2,6-dimethoxybenzenesulfonamide] | – | – | – |
| 132 | 220 | 2500 | COc1ccc(OC(C)C)c(-c2cc(NS(=O)(=O)c3c(OC)cccc3OC)no2)c1 [Example 14, N-(5-(2-Isopropoxy-5-methoxyphenyl)isoxazol-3-yl)-2,6-dimethoxybenzenesulfonamide] | – | – | – |
| 69.3 | – | – | COCc1ccc(OC)cc1-c1cc(NS(=O)(=O)c2c(OC)cccc2OC)no1 [Example 71, 2,6-Dimethoxy-N-(5-(5-methoxy-2-(methoxymethyl)phenyl)isoxazol-3-yl)benzenesulfonamide] | – | – | – |
| – | – | – | COc1ccc(-c2ccn[nH]2)cc1-c1cc(NS(=O)(=O)c2c(OC)cccc2OC)no1 [Example 72, 2,6-Dimethoxy-N-(5-(2-methoxy-5-(1H-pyrazol-5-yl)phenyl)isoxazol-3-yl)benzenesulfonamide] | 204 | 575 | 4730 |
| > 10000 | – | 5420 | COc1ccc(CC2CCCCC2)cc1-c1cc(NS(=O)(=O)c2c(OC)cccc2OC)no1 [Example 19, N-(5-(5-(Cyclohexylmethyl)-2-methoxyphenyl)isoxazol-3-yl)-2,6-dimethoxybenzenesulfonamide] | – | – | – |
| 1530 | 3840 | 19900 | COc1ccc(-c2ncco2)cc1-c1cc(NS(=O)(=O)c2c(OC)cccc2OC)no1 [Example 18, 2,6-Dimethoxy-N-(5-(2-methoxy-5-(oxazol-2-yl)phenyl)isoxazol-3-yl)benzenesulfonamide] | – | – | – |

| IC50 [1, 4] [nM] | IC50 [2, 5] [nM] | IC50 [3, 6] [nM] | SMILES | IC50 ([1]; U2OS, 24 h) [nM] | IC50 ([2]; U2OS, 24 h) [nM] | IC50 ([3]; U2OS, 24 h) [nM] |
| --- | --- | --- | --- | --- | --- | --- |
| – | – | – | COc1ccc(C2CC2)cc1-c1cc(NS(=O)(=O)c2c(OC)cccc2OC)no1 [Example 8, N-(5-(5-Cyclopropyl-2-methoxyphenyl)isoxazol-3-yl)-2,6-dimethoxybenzenesulfonamide] | 51.8 | 345 | 3270 |
| 173 | 3000 | 17100 | COc1ccc(-n2cccn2)cc1-c1cc(NS(=O)(=O)c2c(OC)cccc2OC)no1 [Example 105, 2,6-Dimethoxy-N-(5-(2-methoxy-5-(1H-pyrazol-1-yl)phenyl)isoxazol-3-yl)benzenesulfonamide] | – | – | – |
| – | – | – | COc1cccc(OC)c1S(=O)(=O)Nc1cc(-c2ccccc2OC(F)(F)F)on1 [Example 22, 2,6-Dimethoxy-N-(5-(2-(trifluoromethoxy)phenyl)isoxazol-3-yl)benzenesulfonamide] | 2130 | 762 | 4770 |
| – | – | – | COc1ccccc1-c1cc(NS(=O)(=O)c2c(OC)ccc(-c3ccccc3)c2OC)no1 [Example 10, 2,4-Dimethoxy-N-(5-(2-methoxyphenyl)isoxazol-3-yl)-[1,1′-biphenyl]-3-sulfonamide] | – | 4140 | > 40000 |
| – | – | – | COc1ccccc1-c1cc(NS(=O)(=O)c2c(OC)cc(-c3ccccc3)cc2OC)no1 [Example 11, 3,5-Dimethoxy-N-(5-(2-methoxyphenyl)isoxazol-3-yl)-[1,1′-biphenyl]-4-sulfonamide] | – | 2740 | 5320 |
| – | – | – | COc1ccccc1-c1cc(NS(=O)(=O)NC2CCCCC2)no1 [Example 117, N-Cyclohexyl((5-(2-methoxyphenyl)-1,2-oxazol-3-yl)amino)sulfonamide] | 5560 | – | – |
| 187 | – | – | COCc1ccc(OC)c(-c2cc(NS(=O)(=O)Cc3ccccc3)no2)c1 [Example 112, N-(5-(2-Methoxy-5-(methoxymethyl)phenyl)isoxazol-3-yl)-1-phenylmethanesulfonamide] | – | – | – |
| 275 | – | – | COc1ccc(OC)c(-c2nnc(NS(=O)(=O)c3c(OC)cccc3OC)s2)c1 [Example 70, N-(5-(2,5-Dimethoxyphenyl)-1,3,4-thiadiazol-2-yl)-2,6-dimethoxybenzenesulfonamide] | – | – | – |
| – | – | – | COc1ccccc1-c1cc(NS(=O)(=O)c2ccccc2)no1 [Example 3, N-(5-(2-Methoxyphenyl)isoxazol-3-yl)benzenesulfonamide] | > 10000 | 39200 | > 40000 |
| – | 25600 | > 40000 | COc1ccccc1-c1cc(NS(=O)(=O)C2CCCCC2)no1 [Example 102, N-(5-(2-Methoxyphenyl)isoxazol-3-yl)cyclohexanesulfonamide] | – | – | – |
| – | – | – | COc1ccccc1-c1cc(NS(=O)(=O)Nc2ccccc2)no1 [Example 116, N-Phenyl((5-(2-methoxyphenyl)-1,2-oxazol-3-yl)amino)sulfonamide] | > 20000 | > 40000 | > 40000 |
| – | – | – | COc1ccc(OC)c(-c2cc(NS(=O)(=O)c3c(OC)cccc3OC)no2)c1 [Example 7, N-(5-(2,5-Dimethoxyphenyl)isoxazol-3-yl)-2,6-dimethoxybenzenesulfonamide] | 49.1 | 496 | 2190 |
| 2260 | 3200 | 29300 | COc1ccccc1-c1nnc(NS(=O)(=O)c2c(OC)cccc2OC)s1 [Example 17, 2,6-Dimethoxy-N-(5-(2-methoxyphenyl)-1,3,4-thiadiazol-2-yl)benzenesulfonamide] | – | – | – |
| 3940 | 7380 | 27200 | COCc1ccc(OC)cc1-c1nnc(NS(=O)(=O)c2c(OC)cccc2OC)s1 [Example 96, 2,6-Dimethoxy-N-(5-(5-methoxy-2-(methoxymethyl)phenyl)-1,3,4-thiadiazol-2-yl)benzenesulfonamide] | – | – | – |
| – | – | – | COc1ccccc1-c1cc(NS(=O)(=O)CCc2ccccc2)no1 [Example 4, N-(5-(2-Methoxyphenyl)isoxazol-3-yl)-2-phenylethane-1-sulfonamide] | > 10000 | – | – |
| – | – | – | COc1ccc(S(=O)(=O)Nc2cc(-c3ccccc3OC)on2)c(OC)c1 [Example 57, 2,4-Dimethoxy-N-(5-(2-methoxyphenyl)isoxazol-3-yl)benzenesulfonamide] | – | > 40000 | – |
